Where only a bound is given, the exact number is not on record here.

Assay [1] has as its target CMII (bovine cardiac myosin II, MYH7) (Bos taurus, UniProt Q9BE39). In words: NADH-linked ATPase assay, quadratic […] binding fit. The assay is classed as biochemical.
Assay [2] addresses SkMII (skeletal muscle myosin II). The description is as above. It counts as biochemical.

CMII (bovine cardiac myosin II, MYH7), sequence (Q9BE39 whole entry): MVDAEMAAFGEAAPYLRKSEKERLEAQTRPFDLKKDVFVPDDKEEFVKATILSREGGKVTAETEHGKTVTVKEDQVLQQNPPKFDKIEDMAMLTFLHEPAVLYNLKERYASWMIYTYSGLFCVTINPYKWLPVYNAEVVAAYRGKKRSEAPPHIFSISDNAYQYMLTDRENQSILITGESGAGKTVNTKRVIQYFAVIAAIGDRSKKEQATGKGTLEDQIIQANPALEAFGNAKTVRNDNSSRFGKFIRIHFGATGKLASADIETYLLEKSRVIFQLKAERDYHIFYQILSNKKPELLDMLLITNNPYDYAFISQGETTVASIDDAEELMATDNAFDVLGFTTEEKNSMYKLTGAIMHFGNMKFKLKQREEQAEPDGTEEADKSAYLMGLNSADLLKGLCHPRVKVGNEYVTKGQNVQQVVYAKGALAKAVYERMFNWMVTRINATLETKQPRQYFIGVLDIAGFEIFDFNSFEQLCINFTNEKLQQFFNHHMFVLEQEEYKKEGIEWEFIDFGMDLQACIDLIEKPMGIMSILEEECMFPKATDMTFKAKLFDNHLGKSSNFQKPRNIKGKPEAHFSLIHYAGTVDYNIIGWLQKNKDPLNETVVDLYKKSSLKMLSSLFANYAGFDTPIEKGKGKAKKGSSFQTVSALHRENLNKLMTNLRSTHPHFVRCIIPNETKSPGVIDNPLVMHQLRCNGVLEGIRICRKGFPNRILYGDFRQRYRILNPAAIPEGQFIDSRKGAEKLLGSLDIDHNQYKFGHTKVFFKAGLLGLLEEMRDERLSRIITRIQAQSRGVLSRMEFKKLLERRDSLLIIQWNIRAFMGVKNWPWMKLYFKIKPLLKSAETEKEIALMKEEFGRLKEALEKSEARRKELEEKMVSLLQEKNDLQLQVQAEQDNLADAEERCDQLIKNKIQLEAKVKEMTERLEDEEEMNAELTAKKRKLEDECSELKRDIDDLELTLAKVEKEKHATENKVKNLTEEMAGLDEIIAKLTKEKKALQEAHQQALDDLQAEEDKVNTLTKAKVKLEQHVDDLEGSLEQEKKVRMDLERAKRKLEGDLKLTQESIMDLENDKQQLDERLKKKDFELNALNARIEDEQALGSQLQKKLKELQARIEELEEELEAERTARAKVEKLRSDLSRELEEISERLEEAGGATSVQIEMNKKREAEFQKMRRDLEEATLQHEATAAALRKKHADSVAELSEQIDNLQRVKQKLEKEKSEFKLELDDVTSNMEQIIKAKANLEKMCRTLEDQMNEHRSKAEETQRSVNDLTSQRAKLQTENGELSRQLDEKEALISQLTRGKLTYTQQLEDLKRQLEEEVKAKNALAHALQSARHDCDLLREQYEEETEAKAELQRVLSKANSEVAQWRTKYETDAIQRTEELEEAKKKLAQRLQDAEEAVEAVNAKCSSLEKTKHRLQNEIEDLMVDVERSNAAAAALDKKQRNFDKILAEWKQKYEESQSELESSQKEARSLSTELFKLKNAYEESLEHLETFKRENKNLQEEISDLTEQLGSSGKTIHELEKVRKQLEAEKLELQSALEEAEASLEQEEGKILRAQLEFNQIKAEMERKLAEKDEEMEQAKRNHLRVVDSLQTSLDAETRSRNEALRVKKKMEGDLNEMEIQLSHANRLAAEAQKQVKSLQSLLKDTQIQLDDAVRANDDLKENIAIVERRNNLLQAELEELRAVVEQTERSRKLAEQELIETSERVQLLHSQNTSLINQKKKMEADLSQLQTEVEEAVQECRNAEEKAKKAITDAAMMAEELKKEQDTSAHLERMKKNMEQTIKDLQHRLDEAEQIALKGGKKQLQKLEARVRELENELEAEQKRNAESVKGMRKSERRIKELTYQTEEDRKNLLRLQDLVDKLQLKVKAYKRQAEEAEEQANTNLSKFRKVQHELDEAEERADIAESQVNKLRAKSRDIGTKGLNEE

Turning to `CC(=O)Nc1ccc(N2CC[C@@]3(O)C(=O)c4cc(C)ccc4N=C23)cc1` [Skeletostatin 2, (S)-N-(4-(3a-hydroxy-6-methyl-4-oxo-2,3,3a,4-tetrahydro-1H-pyrrolo[2,3-b]quinolin-1-yl)phenyl)acetamide], the Ki came to 34000 nM in assay [1] and 270 nM in assay [2].

As to `Cc1ccc2c(c1)C(=O)[C@]1(O)CCN(c3ccccc3)C1=N2` [Blebbistatin], the Ki in assay [1] was found to be 1900 nM; in assay [2], 280 nM.

With `Cc1ccc2c(c1)C(=O)[C@]1(O)CCN(c3cnc4nc(C)oc4c3)C1=N2` [Skeletostatin 1, (S)-3a-hydroxy-6-methyl-1-(2-methyloxazolo[4,5-b]pyridin-6-yl)-1,2,3,3a-tetrahydro-4H-pyrrolo[2,3-b]quinolin-4-one], the Ki came out at 83000 nM in assay [1] and 480 nM in assay [2].

For `Cc1ccc2c(c1)C(=O)[C@]1(O)CCN(c3ccc(N4CCOCC4)cc3)C1=N2` [Skeletostatin 3, (S)-3a-hydroxy-6-methyl-1-(4-morpholinophenyl)-1,2,3,3a-tetrahydro-4H-pyrrolo[2,3-b]quinolin-4-one], the Ki in assay [1] is above 56000 nM; in assay [2] it was 790 nM.

In general, Ki refers to a dissociation constant, usually derived from enzyme kinetics or from competition with a known ligand. Low values mean tighter binding, high ones weaker binding.

Source of the values: publication doi:10.1101/2020.07.28.225383v1 (biorxiv, 2020).
